Assay results reported in patent US5837548A, “Treatment of inflammation by inhibition of lipid body formation” (Beth Israel Hospital, priority 1995, dated 1998).
Like-named read-outs stand apart in the source and are kept apart here. *1 amine or outer side, *2 acyl side, *3 side chain or, on linkers, in order; H or OH if unused. Where a SMILES comes first, the peptide text is derived from it. Bridges are numbered along the chain shown (N, C = ends). Roman numbers before positions name the chains, in order. [ ]: non-standard residue; d: D form. Actinocin(9to1) = Cc1c2oc3c(C)ccc(C(=O)[*:1])c3nc-2c(C(=O)[*:2])c(N)c1=O; NMeV = CN[CH](C(=O)O)C(C)C; Sar = CNCC(=O)O

What was measured:
human neutrophils = assay: cis-unsaturated fatty acid-induced lipid body formation in human neutrophils (osmium staining, light microscopy enumeration); assay type: cell-based; conditions: for inhibition at 1 µM / inhibition at 10 µM: Homo sapiens, Neutrophil, basal subtracted; for inhibition of arachidonic acid-induced lipid body formation / inhibition of oleic acid-induced lipid body formation: human neutrophils, staurosporine 0.1-1.0 μM, aspirin 10 μg/mL, others as in Tables 1 and 2; for effect on numbers of preformed lipid bodies: neutrophils
Description: Neutrophils were purified from fresh human blood obtained by venipuncture from healthy adult volunteers and collected into acidified citrate. After addition of 6% dextran 70 (McGaw, Irvine, Calif.), RBCs were allowed to sediment for 1 hour at room temperature. The leukocyte-rich supernatant was overlaid onto an equal volume of Ficoll-Paque gradient (Piscataway, N.J.), and centrifuged at 400×g for 20 min. […] Residual RBCs were lysed with hypotonic saline.
Human leukocytes (10^6 cells/mL) were incubated with varying concentrations of arachidonic acid (AA), oleic acid (OA) or vehicle at 37° C. in a 5% CO2 /95% O2 atmosphere, and after 1 hour leukocytes (10^5 cells per slide) were cytocentrifuged (550 rpm, 5 min) onto glass slides. During inhibitory studies, neutrophils were pretreated for 1 hour with varying concentrations of enzyme inhibitors, protein synthesis inhibitors, or vehicle as indicated. When PKC inhibitors were used, the pre-incubation time was reduced to 30 minutes to avoid toxic effects to the cells. […] Stock solutions for A23187, D609, U-73122, and indomethacin were prepared in DMSO and stored at -20° C. Aliquots were diluted in Ca^++ /Mg^++ fee HBSS to the indicated concentration immediately prior to use. […] The morphology of fixed cells was observed, and lipid bodies were enumerated with phase contrast microscopy and a 100× objective lens in 50 consecutively scanned leukocytes.
Results were expressed as mean±SEM and were analyzed statistically by means of the analysis of variance followed by the Newman-Keuls-Student test with the level of significance set at p<0.05. Correlation coefficients were determined by linear regression, and correlation analysis was performed by Fisher's r to z transformation with the level of significance set at p<0.05.
^1 Neutrophils (10^6 /ml) were pretreated with protein kinase C
(actinomycin D, cycloheximide) for 30 min or with phospholipase C
inhibitors (D609, U73122) for 1 h. The cells were then stimulated with
vehicle, arachidonic acid (15 μM), or oleic acid (10 μM), for 1 h.
Results are mean ± SEM from fifty consecutively counted neutrophils.
Statistically significant differences between the agonist alone and the
inhibitor are represented by an asterisk(*). Percent inhibition has been
calculated after subtracting out the basal number of lipid bodies/PMN
present prior to stimulation.
^1 Neutrophils (10^6 /ml) were pretreated with the NSAID or
vehicle for 1 h then stimulated with vehicle, arachidonic acid, or oleic
± SEM from fifty consecutively counted neutrophils. Statistically
significant differences between the agonist alone and the NSAID are
represented by an asterisk (*). Percent inhibition has been calculated
after subtracting out the basal number of lipid bodies/PMN present prior

human leukocytes = assay: cytotoxicity / cell viability by trypan blue dye exclusion; assay type: cell-based; conditions: neutrophils
Description: Human leukocytes (10^6 cells/mL) were incubated with varying concentrations of arachidonic acid (AA), oleic acid (OA) or vehicle at 37° C. in a 5% CO2 /95% O2 atmosphere, and after 1 hour leukocytes (10^5 cells per slide) were cytocentrifuged (550 rpm, 5 min) onto glass slides. During inhibitory studies, neutrophils were pretreated for 1 hour with varying concentrations of enzyme inhibitors, protein synthesis inhibitors, or vehicle as indicated. When PKC inhibitors were used, the pre-incubation time was reduced to 30 minutes to avoid toxic effects to the cells. The cell viability, determined by trypan blue dye exclusion at the end of each experiment, was always greater than 90%. Stock solutions for A23187, D609, U-73122, and indomethacin were prepared in DMSO and stored at -20° C. Aliquots were diluted in Ca^++ /Mg^++ fee HBSS to the indicated concentration immediately prior to use. The final DMSO concentration was always lower than 0.1% and had no effect on lipid body numbers. […] The morphology of fixed cells was observed, and lipid bodies were enumerated with phase contrast microscopy and a 100× objective lens in 50 consecutively scanned leukocytes.

[1] = arachidonic acid 15 μM, inhibitor 1 μM
[2] = arachidonic acid 15 μM, inhibitor 10 μM
[3] = oleic acid 10 μM, inhibitor 1 μM
[4] = oleic acid 10 μM, inhibitor 10 μM

Row | SMILES | inhibition at 1 µM (human neutrophils; [1]) [%] | inhibition at 10 µM (human neutrophils; [2]) [%] | inhibition at 1 µM (human neutrophils; [3]) [%] | inhibition at 10 µM (human neutrophils; [4]) [%] | lipid bodies (mean ± SEM)/cell (human neutrophils; [1]) [lipid bodies/cell] | lipid bodies (mean ± SEM)/cell (human neutrophils; [2]) [lipid bodies/cell] | inhibition of arachidonic acid-induced lipid body formation (human neutrophils) | inhibition of oleic acid-induced lipid body formation (human neutrophils) | effect on numbers of preformed lipid bodies (human neutrophils) | lipid bodies (mean ± SEM)/cell (human neutrophils; [3]) [lipid bodies/cell] | lipid bodies (mean ± SEM)/cell (human neutrophils; [4]) [lipid bodies/cell] | cytotoxicity (human leukocytes) | inhibition at 1 µM (human neutrophils; arachidonic acid 15 μM, inhibitor 1 μM, read-out: % inhibition) [%] | inhibition at 10 µM (human neutrophils; arachidonic acid 15 μM, inhibitor 10 μM, read-out: % inhibition) [%] | inhibition at 1 µM (human neutrophils; oleic acid 10 μM, inhibitor 1 μM, read-out: % inhibition) [%] | inhibition at 10 µM (human neutrophils; oleic acid 10 μM, inhibitor 10 μM, read-out: % inhibition) [%]
1 | C[C@@H]1C[C@@H]([C@H](O)CC2CC(=O)NC(=O)C2)C(=O)[C@@H](C)C1 [cycloheximide] | 17 | 30 | 22 | 38 | 9.8 ± 0.3 | 9.2 ± 0.3 | significantly inhibited | significantly inhibited | did not alter numbers of preformed lipid bodies | 9.0 ± 0.3 | 8.3 ± 0.3 | not cytotoxic | – | – | – | –
2 | Cc1c2oc3c(C)ccc(C(=O)NC4C(=O)NC(C(C)C)C(=O)N5CCCC5C(=O)N(C)CC(=O)N(C)C(C(C)C)C(=O)OC4C)c3nc-2c(C(=O)NC2C(=O)NC(C(C)C)C(=O)N3CCCC3C(=O)N(C)CC(=O)N(C)C(C(C)C)C(=O)OC2C)c(N)c1=O (stereo not drawn) [actinomycin D] (I: TVP[Sar][NMeV] / II: TVP[Sar][NMeV]; ester I:1-I:C, II:1-II:C; linker I:N-II:N via Actinocin(9to1); configuration not given here) | – | – | – | – | 8.4 ± 0.3 | 7.6 ± 0.3 | significantly inhibited | significantly inhibited | did not alter numbers of preformed lipid bodies | 8.8 ± 0.3 | 8.1 ± 0.3 | not cytotoxic | 47 | 64 | 26 | 42
